The text below walks through data of patent US20060199770A1, “Functionalized carbon nanotubes, a process for preparing the same and their use in medicinal chemistry” (priority 2003, published 2006).

One experiment relates to BALB/c mice. Particulars: mouse, in vivo; cited from earlier work.
Another experiment concerns mAb 21×27. In kind it is binding, mice.
The subject of experiment [1] is polyclonal mouse anti-FMDV peptide serum. In kind it is binding.

Where no end group is shown, it is not given here.

In the case of “Ac-GSGVRGDFGSLAPRVARQL [FMDV 141-159 peptide]”, in the experiment on BALB/c mice, the “immunogenicity when injected alone with an adjuvant” value was “not immunogenic”.

In the case of “Ac-CGSGVRGDFGSLAPRVARQL [free FMDV peptide]”, the “recognition by monoclonal antibodies (ELISA, FIG. 5B)” value with mAb 21×27 is “recognized equally well”. Further, in experiment [1], the “recognition by polyclonal antibodies (ELISA, FIG. 5A)” value was “recognized equally well”.
